# “And” between values parts separate entries of the source, which are not always exact repeats. Equal values may be shown once. Toxic doses and inconclusive results are not listed.
# System: L1210 leukemia ip in BDF1 mice, survival T/C
# Test: NCI In Vivo Anticancer Drug Screen. Data for tumor model L1210 Leukemia (intraperitoneal) in B6D2F1 (BDF1) mice
# Details: endpoint: mean survival time, higher = longer survival
# In short: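 Mice bearing the transplanted tumor received compound or vehicle. Survival of the treated group was divided by that of the vehicle-treated control group to give the ratio.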
# [1] = dose: 100.0 mg/kg/injection, schedule: Q01DX001 (ip), vehicle: saline
# [2] = dose: 100.0 mg/kg/injection, schedule: Q04DX003 (ip), vehicle: saline with Tween-80
# [3] = dose: 200.0 mg/kg/injection, schedule: Q04DX003 (ip), vehicle: saline with Tween-80
# [4] = dose: 100.0 mg/kg/injection, schedule: Q01DX009 (ip), vehicle: Klucel (hydroxypropylcellulose) (HPC)
# [5] = dose: 100.0 mg/kg/injection, schedule: Q04DX003 (ip), vehicle: Klucel (hydroxypropylcellulose) (HPC)
# [6] = dose: 200.0 mg/kg/injection, schedule: Q01DX009 (ip), vehicle: Klucel (hydroxypropylcellulose) (HPC)
# [7] = dose: 200.0 mg/kg/injection, schedule: Q04DX003 (ip), vehicle: Klucel (hydroxypropylcellulose) (HPC)
# [8] = dose: 400.0 mg/kg/injection, schedule: Q01DX009 (ip), vehicle: Klucel (hydroxypropylcellulose) (HPC)
# [9] = dose: 400.0 mg/kg/injection, schedule: Q04DX003 (ip), vehicle: Klucel (hydroxypropylcellulose) (HPC)
# [10] = dose: 100.0 mg/kg/injection, schedule: Q04DX003 (ip), vehicle: saline
# [11] = dose: 200.0 mg/kg/injection, schedule: Q04DX003 (ip), vehicle: saline
# [12] = dose: 400.0 mg/kg/injection, schedule: Q04DX003 (ip), vehicle: saline
# [13] = dose: 25.0 mg/kg/injection, schedule: Q01DX009 (ip), vehicle: Klucel (hydroxypropylcellulose) (HPC)
# [14] = dose: 50.0 mg/kg/injection, schedule: Q01DX009 (ip), vehicle: Klucel (hydroxypropylcellulose) (HPC)
# [15] = dose: 50.0 mg/kg/injection, schedule: Q01DX009 (ip), vehicle: saline
# [16] = dose: 100.0 mg/kg/injection, schedule: Q01DX009 (ip), vehicle: saline
compound,measurement,setting,value
Cc1cc(O)c(C(=O)/C=C/c2ccccc2)c(=O)[nH]1,T/C,[1],86 % of control
same,T/C,"dose: 200.0 mg/kg/injection, schedule: Q01DX001 (ip), vehicle: saline",96 % of control
same,T/C,"dose: 400.0 mg/kg/injection, schedule: Q01DX001 (ip), vehicle: saline",92 % of control
Cc1ccc(NC(=O)Oc2ccc3ccccc3c2)c([N+](=O)[O-])c1,T/C,[2],99 % of control
same,T/C,[3],99 % of control
same,T/C,"dose: 400.0 mg/kg/injection, schedule: Q04DX003 (ip), vehicle: saline with Tween-80",89 % of control
CC(=O)OC(C)(C)/N=N/C(C)(C)OC(C)=O,T/C,"dose: 100.0 mg/kg/injection, schedule: Q01DX001 (ip), vehicle: Klucel (hydroxypropylcellulose) (HPC)",94 % of control
same,T/C,[4],101 % of control
same,T/C,[5],108 % of control
same,T/C,"dose: 200.0 mg/kg/injection, schedule: Q01DX001 (ip), vehicle: Klucel (hydroxypropylcellulose) (HPC)",108 % of control
same,T/C,[6],101 % of control
same,T/C,[7],101 % of control
same,T/C,"dose: 400.0 mg/kg/injection, schedule: Q01DX001 (ip), vehicle: Klucel (hydroxypropylcellulose) (HPC)",103 % of control
same,T/C,[8],101 % of control
same,T/C,[9],103 % of control
NC(=O)C[n+]1cccc(C(=O)Nc2ccccc2)c1,T/C,[10],97 % of control
same,T/C,[11],101 % of control
same,T/C,[12],87 % of control
[O-][n+]1onc2ccccc21,T/C,"dose: 100.0 mg/kg/injection, schedule: Q01DX001 (ip), vehicle: saline with Tween-80",97 % of control
COC1=C(Br)[C@H](O)[C@](O)(CC#N)C=C1Br,T/C,"dose: 12.5 mg/kg/injection, schedule: Q01DX009 (ip), vehicle: saline",97 % of control
same,T/C,"dose: 25.0 mg/kg/injection, schedule: Q01DX001 (ip), vehicle: Klucel (hydroxypropylcellulose) (HPC)",97 % of control
same,T/C,[13],101 % of control
same,T/C,"dose: 25.0 mg/kg/injection, schedule: Q01DX009 (ip), vehicle: saline",110 % of control
same,T/C,"dose: 44.0 mg/kg/injection, schedule: Q01DX001 (ip), vehicle: saline",103 % of control
same,T/C,"dose: 50.0 mg/kg/injection, schedule: Q01DX001 (ip), vehicle: Klucel (hydroxypropylcellulose) (HPC)",104 % of control
same,T/C,[14],94 % of control
same,T/C,[15],107 % of control
same,T/C,"dose: 66.0 mg/kg/injection, schedule: Q01DX001 (ip), vehicle: saline",106 % of control
same,T/C,[1],117 % of control and 229 % of control
same,T/C,[4],108 % of control
same,T/C,[16],91 % of control
same,T/C,"dose: 150.0 mg/kg/injection, schedule: Q01DX001 (ip), vehicle: saline",121 % of control
CC(=O)O/N=C1\c2ccccc2-c2ccc([N+](=O)[O-])cc21,T/C,"dose: 75.0 mg/kg/injection, schedule: Q01DX009 (ip), vehicle: Klucel (hydroxypropylcellulose) (HPC)",93 % of control
same,T/C,[5],97 % of control
same,T/C,"dose: 150.0 mg/kg/injection, schedule: Q01DX009 (ip), vehicle: Klucel (hydroxypropylcellulose) (HPC)",86 % of control
same,T/C,[7],95 % of control
same,T/C,"dose: 300.0 mg/kg/injection, schedule: Q01DX009 (ip), vehicle: Klucel (hydroxypropylcellulose) (HPC)",86 % of control
same,T/C,[9],100 % of control
C/C(=C\c1ccccc1)[N+](=O)[O-],T/C,"dose: 1.0 mg/kg/injection, schedule: Q04DX003 (ip), vehicle: Klucel (hydroxypropylcellulose) (HPC)",106 % of control
same,T/C,"dose: 4.0 mg/kg/injection, schedule: Q01DX009 (ip), vehicle: Klucel (hydroxypropylcellulose) (HPC)",104 % of control
same,T/C,"dose: 8.0 mg/kg/injection, schedule: Q01DX009 (ip), vehicle: Klucel (hydroxypropylcellulose) (HPC)",89 % of control
same,T/C,"dose: 12.5 mg/kg/injection, schedule: Q01DX009 (ip), vehicle: Klucel (hydroxypropylcellulose) (HPC)",98 % of control
same,T/C,"dose: 12.5 mg/kg/injection, schedule: Q04DX003 (ip), vehicle: Klucel (hydroxypropylcellulose) (HPC)",101 % of control
same,T/C,"dose: 16.0 mg/kg/injection, schedule: Q01DX009 (ip), vehicle: Klucel (hydroxypropylcellulose) (HPC)",107 % of control
same,T/C,"dose: 20.0 mg/kg/injection, schedule: Q04DX003 (ip), vehicle: Klucel (hydroxypropylcellulose) (HPC)",101 % of control
same,T/C,[13],102 % of control and 104 % of control
same,T/C,"dose: 25.0 mg/kg/injection, schedule: Q04DX003 (ip), vehicle: Klucel (hydroxypropylcellulose) (HPC)",116 % of control
same,T/C,"dose: 32.0 mg/kg/injection, schedule: Q01DX009 (ip), vehicle: Klucel (hydroxypropylcellulose) (HPC)",100 % of control
same,T/C,"dose: 40.0 mg/kg/injection, schedule: Q04DX003 (ip), vehicle: Klucel (hydroxypropylcellulose) (HPC)",95 % of control
same,T/C,[14],101 % of control and 113 % of control
same,T/C,"dose: 50.0 mg/kg/injection, schedule: Q04DX003 (ip), vehicle: Klucel (hydroxypropylcellulose) (HPC)",106 % of control
same,T/C,"dose: 64.0 mg/kg/injection, schedule: Q01DX009 (ip), vehicle: Klucel (hydroxypropylcellulose) (HPC)",110 % of control
same,T/C,"dose: 80.0 mg/kg/injection, schedule: Q04DX003 (ip), vehicle: Klucel (hydroxypropylcellulose) (HPC)",100 % of control
CC(Cc1ccccc1)n1c(-c2ccccc2)c[n+]2ccccc12 (stereo unspecified),T/C,"dose: 1.17 mg/kg/injection, schedule: Q01DX001 (ip), vehicle: other",101 % of control
same,T/C,"dose: 2.34 mg/kg/injection, schedule: Q01DX001 (ip), vehicle: other",102 % of control
same,T/C,"dose: 4.69 mg/kg/injection, schedule: Q01DX001 (ip), vehicle: other",102 % of control
NC(Cc1ccccc1)c1ccccc1 (stereo unspecified) (tested in a mixture with another compound),T/C,[10],89 % of control and 95 % of control
same,T/C,[11],89 % of control
CC[N+](C)(CC)CCCN1C(=O)c2ccccc2S1(=O)=O,T/C,"dose: 22.0 mg/kg/injection, schedule: Q01DX Z (ip), vehicle: methylcellulose (MC)",94 % of control
same,T/C,"dose: 33.0 mg/kg/injection, schedule: Q01DX Z (ip), vehicle: methylcellulose (MC)",96 % of control
same,T/C,"dose: 50.0 mg/kg/injection, schedule: Q01DX Z (ip), vehicle: methylcellulose (MC)",91 % of control
CCCCCCCCCCCC(=O)N/N=C/c1ccccc1OC,T/C,[13],90 % of control
same,T/C,[14],94 % of control
same,T/C,[4],87 % of control and 90 % of control
C/C=C/C=C(\CC)C(=O)OCC,T/C,[15],115 % of control
same,T/C,"dose: 100.0 mg/kg/injection, schedule: Q01DX009 (ip), vehicle: saline with Tween-80",98 % of control
same,T/C,[16],99 % of control
same,T/C,"dose: 200.0 mg/kg/injection, schedule: Q01DX009 (ip), vehicle: saline with Tween-80",90 % of control
same,T/C,"dose: 200.0 mg/kg/injection, schedule: Q01DX009 (ip), vehicle: saline",96 % of control
same,T/C,"dose: 400.0 mg/kg/injection, schedule: Q01DX009 (ip), vehicle: saline with Tween-80",101 % of control
O=C(/C=C/c1ccccc1)NC12CC3CC(CC(C3)C1)C2,T/C,[10],91 % of control
same,T/C,[11],93 % of control
same,T/C,[12],100 % of control
COc1ccc(/C=N/NC(=O)c2ccccc2O)cc1,T/C,[4],98 % of control
same,T/C,[6],96 % of control
same,T/C,[8],112 % of control
NC(CO)C(O)c1ccc([N+](=O)[O-])cc1 (stereo unspecified),T/C,[4],101 % of control
same,T/C,[5],91 % of control
same,T/C,[6],101 % of control
same,T/C,[7],100 % of control
same,T/C,[8],101 % of control
same,T/C,[9],98 % of control
CCCCN(CCC#N)CCCC,T/C,"dose: 25.0 mg/kg/injection, schedule: Q04DX003 (ip), vehicle: saline with Tween-80",111 % of control
same,T/C,"dose: 29.5 mg/kg/injection, schedule: Q01DX009 (ip), vehicle: saline with Tween-80",107 % of control
same,T/C,"dose: 50.0 mg/kg/injection, schedule: Q04DX003 (ip), vehicle: saline with Tween-80",105 % of control
same,T/C,"dose: 59.0 mg/kg/injection, schedule: Q01DX009 (ip), vehicle: saline with Tween-80",107 % of control
same,T/C,[2],97 % of control
same,T/C,"dose: 118.0 mg/kg/injection, schedule: Q01DX009 (ip), vehicle: saline with Tween-80",108 % of control
[O-][N+](=C1c2ccccc2-c2ccccc21)c1ccccc1,T/C,[10],94 % of control
same,T/C,[11],92 % of control
same,T/C,[12],94 % of control
Nc1cnccc1Nc1ccncc1,T/C,[2],96 % of control
same,T/C,[3],96 % of control
CNCC1OC(n2cc(C)c(=O)[nH]c2=O)CC1O (stereo unspecified),T/C,"dose: 25.0 mg/kg/injection, schedule: Q04DX002 (ip), vehicle: saline",108 % of control
same,T/C,"dose: 50.0 mg/kg/injection, schedule: Q04DX002 (ip), vehicle: saline",115 % of control
same,T/C,"dose: 100.0 mg/kg/injection, schedule: Q04DX002 (ip), vehicle: saline",97 % of control

# Source: PubChem BioAssay AID248 (DTP/NCI, 2004)
